Results taken from PMC6014988, “Precision therapeutic targeting of human cancer cell motility” (Nature Communications, 2018).

Experiments:
[1] = Three-day MTT cell growth inhibition assay, PC3; format: cell-based, human; details: human, PC3 cells
PC3 = assay: Three-day MTT cell growth inhibition assay, PC3; format: cell-based, human; details: Homo sapiens, PC-3, 72 h, 3 days
[2] = system: human prostate cells (PC3, PC3-M, 1532NPTX, 1542NPTX, 1532CPTX, 1542CPTX); assay: Cell invasion, panel of human prostate cells; format: cell-based
Experimental: Human prostate metastatic cells (PC3, PC3-M), and HPV-transformed normal (1532NPTX, 1542NPTX) and primary cancer (1532CPTX, 1542CPTX) cells, were treated with 10 µM genistein (G), KBU2046 (46), or vehicle (CO), and after 3 days, cell invasion was measured. Values are mean ± SEM of a single experiment in replicates of N = 4, with similar findings in multiple separate experiments (also N = 4). c Single-cell migration. Cell migration was measured after treatment for 3 days with 10 µM KBU2046 or vehicle (control). Values are mean ± SEM of a single experiment in replicates of N = 24, with similar findings in a separate experiment (also N = 24). *Denotes Student’s t-test P value <0.05, compared to controls. d Human cord blood hematopoietic stem cell colony formation assay. Values are the mean ± SD number of total, CFU-GM, CFU-GEMM, or BFU-E colonies at 14 days after treatment with KBU2046, from a single experiment in replicates of N = 2. e Induction of estrogen-responsive genes. Values are the mean ± SD of a single experiment, with similar results seen in a separate experiment, both in replicates of N = 2
Boyden chamber cell invasion assays were performed as previously described by us[30], using either denatured collagen (BD Biosciences) or type IV human collagen (BD Biosciences), with all experiments repeated, each in N = 4 replicates. […]

HSP90β = biological target: T1, HSP90β (Homo sapiens, UniProt P08238); assay: Biophysical binding assays and DARTS, isolated HSP90β; details: ITC, thermal shift, biolayer interferometry, dynamic light scattering, DARTS
T1 construct: made in house; host or cells: Rosetta BL-21 E. coli
T1 sequence (P08238 whole entry): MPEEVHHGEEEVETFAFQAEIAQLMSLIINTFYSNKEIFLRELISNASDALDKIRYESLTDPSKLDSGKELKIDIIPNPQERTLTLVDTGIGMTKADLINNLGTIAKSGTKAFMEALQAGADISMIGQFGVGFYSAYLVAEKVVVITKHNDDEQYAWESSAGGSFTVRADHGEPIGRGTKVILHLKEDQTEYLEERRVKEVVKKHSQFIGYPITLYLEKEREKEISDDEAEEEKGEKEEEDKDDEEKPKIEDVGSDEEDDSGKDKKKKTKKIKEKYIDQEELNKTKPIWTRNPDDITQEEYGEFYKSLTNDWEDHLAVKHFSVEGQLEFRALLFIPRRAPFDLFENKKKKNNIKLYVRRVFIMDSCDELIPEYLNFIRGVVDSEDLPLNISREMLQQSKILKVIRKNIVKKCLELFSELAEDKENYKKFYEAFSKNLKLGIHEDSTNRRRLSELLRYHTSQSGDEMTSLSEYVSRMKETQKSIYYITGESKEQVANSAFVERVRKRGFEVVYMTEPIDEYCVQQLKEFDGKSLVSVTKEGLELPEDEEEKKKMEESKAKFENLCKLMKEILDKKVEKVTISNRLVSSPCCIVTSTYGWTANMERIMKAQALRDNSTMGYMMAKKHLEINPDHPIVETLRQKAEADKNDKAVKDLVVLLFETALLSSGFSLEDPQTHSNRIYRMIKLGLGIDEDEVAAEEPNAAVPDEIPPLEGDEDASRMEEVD
Experimental: Fluorescent thermal shift, isothermal titration calorimetry, and biolayer interferometry assays[46] were all performed as described by us using MEK4EE (37-399, S257E, T261E) cloned into pMCSG7 and KRX Competent E. coli cells (Promega Inc.) and above denoted full-length HSP90B and CDC37 vectors and Rosetta BL-21 and BL-21 DE-3 competent E. coli cells, respectively. DARTS assays were conducted as described, using equimolar amounts of CDC37 and HSP90β, thermolysin digestion, and silver stain visualization (ProteoSilver Silver Stain Kit, Sigma-Aldrich).
Supplementary Figure 14. […] Studies used purified […]
recombinant HSP90β or CDC37. Fluorescent thermal shift 5, isothermal titration calorimetry 6, […]
evidence of KBU2046 binding to either HSP90β or CDC37 (data not shown). For DARTS assay, HSP90β or CDC37 were individually pre-incubated with KBU2046, thermolysin added, and reaction products were separated by SDS PAGE and visualized by silver stain (depicted above).
NTco – no thermolysin control. However, when the DARTS assay was conducted with both HSP90β and CDC37 present, KBU2046 protected both proteins from degradation in a concentration-dependent manner (see manuscript Fig 5A).
(also on this page, place not known: HSP90 Ntco 0 0.001 0.01 0.1 1.0 10 µM KBU2046, thermolysin NTco thermolysin CDC37)
(1 picture or pasted object on this page, not shown here)

RAF1 = assay: In vitro kinase assay of RAF1, HSP90β and CDC37; format: biochemical; details: purified recombinant RAF1, HSP90β, CDC37
Experimental: MEK4/MKK4/MAP2K4 in vitro kinase assay was performed as described by us[45].

MMPs: 1,2,3, and 7-16 = assay: Qiagen extracellular matrix/adhesion and metastasis/invasion expression arrays; format: cell-based, human; details: PC3-M cells, three days
Text: Response to Reviewers' comments:
We wish to thank the reviewers for their consideration of our manuscript. Their review and critiques have served to improve this manuscript. Below is a point-by-point response to reviewer critiques.
Changes in the manuscript and associated documents are underlined.
General comments: Much of the data is compelling and would be of interest to readers of Nature Communications, but some experimental procedures require a more thorough description and some of the data are too cursory to support the authors’ mechanistic conclusions...
Response. Thank you for your comprehensive and in formed review, we are encouraged that you felt that our data would be compelling to the readers of Nature Communications. In our revised manuscript as well as below, you will find that we have provided the requested clarifications, expanded descriptions and additional experiments requested.
1. Does the compound (herein abbreviated as ‘46’) have any impact on MMPs or other matrix-destroying activities? […] We did in fact suspect that this may be contributing to KBU2046’s anti-invasion efficacy, and as such we evaluated an entire panel of MMPs as part of two separate expression arrays. […]
2. […] Description of this experiment in both the figure legend and in Supplemental Methods is too cursory for the reader to understand how the treatment plan was selected. […]

For `O=C1c2ccccc2OCC1c1ccc(F)cc1` (racemic) [KBU2046, (±)-3(4-fluorophenyl)chroman-4-one], the viability at 3 days, 50 µM [1] was 88.1%, the IC20 (PC3) was greater than 50 µM and the IC50 (PC3) was greater than 50 µM. The cell invasion ([2]; 10 µM, 3 days) was “inhibits cell invasion with efficacy equal-to-or-greater-than that of genistein”, the effect upon invasion ([2]; after 3 days treatment of cells) was 50% and the “binding to HSP90β” value (HSP90β) was “no evidence of KBU2046 binding”. For the same compound, the “phosphorylation of RAF1 Ser338” value (RAF1) was “decreased phosphorylation of RAF1’s Ser338 activation motif” and the “expression of MMPs and other array members” value (MMPs: 1,2,3, and 7-16) was “no significant differences”.
